Laboratory results published in ChEMBL document CHEMBL1201862, “PubChem BioAssay data set” (2004).
Activity calls are given as the source filed them.

Assays:
[1] = molecular target: T1, High affinity choline transporter 1 (Homo sapiens, UniProt Q9GZV3); test: CHT inhibitors, dose response, cell-based, 5-point CRC, membrane potential dye (AID 504840); type: functional
T1 sequence (Q9GZV3 whole entry): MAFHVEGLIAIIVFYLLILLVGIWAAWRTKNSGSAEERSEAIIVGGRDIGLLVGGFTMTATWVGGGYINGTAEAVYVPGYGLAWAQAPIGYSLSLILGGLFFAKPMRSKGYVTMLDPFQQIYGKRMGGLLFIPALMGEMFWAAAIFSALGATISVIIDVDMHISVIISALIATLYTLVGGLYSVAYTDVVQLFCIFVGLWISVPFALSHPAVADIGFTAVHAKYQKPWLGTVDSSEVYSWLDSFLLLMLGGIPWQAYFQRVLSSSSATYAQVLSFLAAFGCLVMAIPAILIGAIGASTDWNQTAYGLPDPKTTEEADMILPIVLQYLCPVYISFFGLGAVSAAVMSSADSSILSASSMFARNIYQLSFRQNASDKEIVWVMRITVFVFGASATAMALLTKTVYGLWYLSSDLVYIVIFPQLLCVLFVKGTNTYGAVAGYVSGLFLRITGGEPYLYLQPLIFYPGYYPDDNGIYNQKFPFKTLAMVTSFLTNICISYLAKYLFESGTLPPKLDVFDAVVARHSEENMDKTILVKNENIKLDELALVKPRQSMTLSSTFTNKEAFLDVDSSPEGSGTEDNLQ

[2] = P. falciparum 3D7-ScDHODH growth inhibitors, dose response, SYBR Green, dry powder samples (AID 1159570); type: functional, cell-based;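 further: parasite growth measured after 72 hours of compound exposure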
[3] = P. falciparum Dd2 growth inhibitors, dose response, SYBR Green, dry powder samples (AID 1159566); type: functional, cell-based;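 further: potency for growth inhibition with lower SYBR green DNA signal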
[4] = P. falciparum Dd2 growth inhibitors, dose response, SYBR Green, cherry-picked samples (AID 1159567); type: functional, cell-based
[5] = P. falciparum ATP4 D1247Y mutant growth inhibitors, dose response, NITD609-resistant line, SYBR Green, dry powder (AID 1159571); type: functional, cell-based;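 further: parasites synchronized at ring stage by sorbitol before testing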
[6] = HepG2 cell cytotoxicity, dose response, cytotoxicity control, plate reader, dry powder samples (AID 1159569); type: functional, cell-based;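 further: inhibitor potency with signal falling toward the positive control level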
[7] = molecular target: DNA dC->dU-editing enzyme APOBEC-3G (Homo sapiens, UniProt Q9HC16); type: functional;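 further: Dose-response counterscreen measuring inhibition of APOBEC3G DNA deaminase activity, run while confirming APOBEC3A inhibitors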
DNA dC->dU-editing enzyme APOBEC-3G, sequence (Q9HC16 whole entry): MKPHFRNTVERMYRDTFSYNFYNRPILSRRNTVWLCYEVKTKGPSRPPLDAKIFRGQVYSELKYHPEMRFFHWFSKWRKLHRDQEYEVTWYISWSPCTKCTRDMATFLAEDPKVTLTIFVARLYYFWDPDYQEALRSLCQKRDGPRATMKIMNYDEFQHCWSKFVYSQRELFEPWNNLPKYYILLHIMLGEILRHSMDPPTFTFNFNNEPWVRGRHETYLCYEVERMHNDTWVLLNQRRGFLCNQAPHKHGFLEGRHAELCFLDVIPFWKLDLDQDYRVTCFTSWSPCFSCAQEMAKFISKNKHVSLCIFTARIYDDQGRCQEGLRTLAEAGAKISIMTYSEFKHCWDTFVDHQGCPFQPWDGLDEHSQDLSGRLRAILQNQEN

[8] = molecular target: DNA dC->dU-editing enzyme APOBEC-3A (Homo sapiens, UniProt P31941); test: Dose Response confirmation of small molecule APOBEC3A DNA Deaminase Inhibitors via a fluorescence-based single-stranded DNA deaminase assay. [Related pubchem assays (depositor defined):AID493011, AID493024]; type: functional
DNA dC->dU-editing enzyme APOBEC-3A, sequence (P31941 whole entry): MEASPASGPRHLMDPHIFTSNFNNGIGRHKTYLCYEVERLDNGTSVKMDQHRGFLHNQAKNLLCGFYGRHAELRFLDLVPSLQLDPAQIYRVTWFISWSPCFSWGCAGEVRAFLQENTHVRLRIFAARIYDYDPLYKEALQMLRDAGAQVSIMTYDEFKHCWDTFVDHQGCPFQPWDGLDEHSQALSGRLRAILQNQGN

[9] = Shn3 3'UTR reporter inhibitors, dose response, cell-based, Clone20 osteoblasts, firefly luciferase, cherry-picked (AID 624132); type: functional;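 further: firefly luciferase luminescence from reporter carrying the Shn3 3'UTR in osteoblasts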
[10] = molecular target: Heat shock protein HSP 90-alpha (Homo sapiens, UniProt P07900); type: functional, organism-based
[11] = control 3'UTR Renilla luciferase suppression, dose response, counter-screen for Shn3 inhibitor project, cell-based, Clone20-Shn3RL, cherry-picked (AID 624133); type: functional
[12] = HepG2 cell cytotoxicity, dose response, cytotoxicity control for Shn3 inhibitor project, CellTiter-Glo, cherry-picked (AID 624134); type: functional, cell-based
Caspase-6 = molecular target: T2, Caspase-6 (Homo sapiens, UniProt P55212); test: human caspase-6 inhibitors, dose response, biochemical, VEID-R110 fluorescence, cherry-pick (AID 720632)
T2 sequence (P55212 whole entry): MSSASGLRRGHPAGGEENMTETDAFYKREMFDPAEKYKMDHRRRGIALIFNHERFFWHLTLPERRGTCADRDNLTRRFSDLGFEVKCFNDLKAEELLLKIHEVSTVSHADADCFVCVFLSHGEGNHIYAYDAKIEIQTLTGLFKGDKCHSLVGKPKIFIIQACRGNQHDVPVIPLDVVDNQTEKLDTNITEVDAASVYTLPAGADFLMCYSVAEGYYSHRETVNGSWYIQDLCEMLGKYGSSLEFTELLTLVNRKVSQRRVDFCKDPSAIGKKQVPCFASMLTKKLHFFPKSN

Paired box protein Pax-8 = Paired box protein Pax-8 (Homo sapiens, UniProt Q06710); test: inhibitors of PAX8-driven TPO luciferase reporter, dose response, RMG-I cells, cherry-pick (AID 687027); type: functional, cell-based;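 further: luciferase reporter driven by Pax8 target thyroperoxidase promoter measured by SteadyGlo luminescence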
Paired box protein Pax-8, sequence (Q06710 whole entry): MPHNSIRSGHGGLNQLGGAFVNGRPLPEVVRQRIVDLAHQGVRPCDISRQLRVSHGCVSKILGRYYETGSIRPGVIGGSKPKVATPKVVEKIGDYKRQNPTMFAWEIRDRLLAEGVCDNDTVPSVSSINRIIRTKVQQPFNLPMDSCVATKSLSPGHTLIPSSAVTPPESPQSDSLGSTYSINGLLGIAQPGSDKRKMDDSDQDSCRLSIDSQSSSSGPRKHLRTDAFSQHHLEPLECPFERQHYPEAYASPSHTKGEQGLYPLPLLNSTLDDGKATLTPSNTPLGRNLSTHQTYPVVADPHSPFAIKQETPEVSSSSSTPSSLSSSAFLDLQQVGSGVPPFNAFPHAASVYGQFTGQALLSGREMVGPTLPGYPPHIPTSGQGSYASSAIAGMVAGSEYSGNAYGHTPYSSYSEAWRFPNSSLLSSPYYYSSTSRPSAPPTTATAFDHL

Steroidogenic factor 1 = Steroidogenic factor 1 (Homo sapiens, UniProt Q13285); test: Counterscreen for inverse agonists of the liver receptor homolog-1 (LRH-1; NR5A2): Luminescence-based cell-based high throughput dose response assay to identify inverse agonists of the Steroidogenic Factor 1 Nuclear Receptor (SF1; NR5A1).; type: functional
Steroidogenic factor 1, sequence (Q13285 whole entry): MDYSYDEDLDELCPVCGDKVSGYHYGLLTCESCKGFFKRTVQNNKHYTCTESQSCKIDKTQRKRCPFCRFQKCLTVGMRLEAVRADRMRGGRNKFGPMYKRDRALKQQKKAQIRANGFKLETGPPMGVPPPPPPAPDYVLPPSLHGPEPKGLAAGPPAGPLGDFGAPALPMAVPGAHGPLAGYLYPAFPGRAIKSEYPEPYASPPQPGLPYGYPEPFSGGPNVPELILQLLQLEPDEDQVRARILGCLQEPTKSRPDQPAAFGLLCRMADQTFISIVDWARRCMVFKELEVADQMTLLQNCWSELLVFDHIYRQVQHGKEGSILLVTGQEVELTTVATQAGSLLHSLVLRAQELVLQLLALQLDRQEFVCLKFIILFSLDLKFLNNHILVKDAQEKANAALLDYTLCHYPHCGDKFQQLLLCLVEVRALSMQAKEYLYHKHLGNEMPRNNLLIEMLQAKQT

[13] = StAR promoter reporter inhibition counter-screen, dose response, counter-screen for LRH-1 inverse agonist project, cell-based, luminescence, luciferase reporter (AID 651969); type: functional
[14] = molecular target: Nuclear receptor subfamily 5 group A member 2 (Homo sapiens, UniProt O00482); type: functional, cell-based;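 further: HEK293T cells transfected with LRH-1 and a StAR promoter luciferase reporter; potency for inhibitors that lower LRH-1 driven reporter light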
Nuclear receptor subfamily 5 group A member 2, sequence (O00482 whole entry): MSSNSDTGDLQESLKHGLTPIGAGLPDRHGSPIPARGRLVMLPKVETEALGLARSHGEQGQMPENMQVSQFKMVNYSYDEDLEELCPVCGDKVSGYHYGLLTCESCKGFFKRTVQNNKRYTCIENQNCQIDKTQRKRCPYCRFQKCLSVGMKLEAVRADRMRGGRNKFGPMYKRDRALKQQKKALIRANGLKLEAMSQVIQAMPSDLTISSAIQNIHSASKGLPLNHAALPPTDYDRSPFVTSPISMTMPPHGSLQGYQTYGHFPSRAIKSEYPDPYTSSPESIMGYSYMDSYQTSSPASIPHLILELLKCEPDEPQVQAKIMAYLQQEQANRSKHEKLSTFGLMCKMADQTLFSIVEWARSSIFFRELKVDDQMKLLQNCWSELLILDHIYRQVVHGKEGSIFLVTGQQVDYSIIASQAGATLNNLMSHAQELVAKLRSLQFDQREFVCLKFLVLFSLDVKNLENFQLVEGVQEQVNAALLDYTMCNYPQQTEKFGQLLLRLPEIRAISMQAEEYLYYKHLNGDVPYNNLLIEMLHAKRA

[15] = microbe, parasite or virus in culture; type: functional; conditions: Mycobacterium tuberculosis
H9c2 = test: cells; type: functional, cell-based; conditions: Rattus norvegicus, H9c2, Myocardium
[16] = cytotoxicity in HEK-293T cells, dose response, cytotoxicity control for BCR NF-kB inhibitor project, luminescence, B-cell screen hits (AID 489021); type: functional, cell-based;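 further: HEK-293T cells carrying an NF-kB luciferase reporter; cells exposed to compound for about 14 hours before viability readout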
[17] = THP-1 cell cytotoxicity, dose response, cytotoxicity control for non-replicating M. tuberculosis project (AID 489025); type: functional
[18] = HepG2 cell cytotoxicity, dose response, cytotoxicity control for non-replicating M. tuberculosis project (AID 489018); type: functional; conditions: Mycobacterium tuberculosis
cells = type: functional
Protein Tat = molecular target: T3, Protein Tat (Human immunodeficiency virus type 1 group M subtype B (isolate HXB2)(HIV-1), UniProt P04608); type: functional;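 further: tat binding to TAR RNA read out by fluorescence polarization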
T3 sequence (P04608 whole entry): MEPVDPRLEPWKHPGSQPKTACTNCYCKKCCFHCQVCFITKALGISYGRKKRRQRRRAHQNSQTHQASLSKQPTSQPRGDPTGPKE

[19] = THP-1 cell cytotoxicity, dose response, cytotoxicity control for Vif-APOBEC3G degradation inhibitor project, THP-1 cells (AID 1117359); type: functional; conditions: Human immunodeficiency virus 1, THP-1
[20] = molecular target: T4, Heat shock factor protein 1 (Mus musculus, UniProt P38532); test: inhibition of MG132-induced HSE-luciferase signal, confirmation, cell-based, NIH3T3, luminescence, dose retest (AID 2382); type: functional;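 further: NIH3T3 fibroblasts with HSF1-driven luciferase reporter stressed by proteasome inhibitor MG132; luminescence from HSF1-driven luciferase expression after 8 hours of MG132 stress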
T4 sequence (P38532 whole entry): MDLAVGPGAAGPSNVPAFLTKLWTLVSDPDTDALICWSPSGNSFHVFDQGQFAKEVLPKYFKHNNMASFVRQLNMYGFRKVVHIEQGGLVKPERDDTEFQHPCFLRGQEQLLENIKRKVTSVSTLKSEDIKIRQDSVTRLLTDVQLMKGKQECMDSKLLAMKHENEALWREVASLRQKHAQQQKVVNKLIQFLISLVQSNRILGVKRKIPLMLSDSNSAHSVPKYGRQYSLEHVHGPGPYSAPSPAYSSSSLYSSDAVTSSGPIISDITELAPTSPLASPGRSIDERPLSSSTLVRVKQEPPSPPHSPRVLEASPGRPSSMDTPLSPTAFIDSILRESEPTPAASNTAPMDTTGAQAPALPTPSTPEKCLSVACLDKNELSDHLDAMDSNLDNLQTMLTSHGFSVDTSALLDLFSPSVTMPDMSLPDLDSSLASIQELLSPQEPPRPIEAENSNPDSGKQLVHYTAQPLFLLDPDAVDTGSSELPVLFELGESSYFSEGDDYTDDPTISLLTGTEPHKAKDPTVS

## CC(C)(C)S(=O)(=O)/C(C#N)=N/Nc1ccc(C#N)cc1
[1]
  IC50: 12 µM (active)

## CCC(=O)N1CCC2(CC1)CN(Cc1cccc(OC)c1)[C@@H](CO)c1[nH]c3cc(OC)ccc3c12
[2]
  AC50: 2.56 µM (active)
[3]
  AC50: 2.21 µM (active)
[4]
  AC50: 2.63 µM (active)
[5]
  AC50: 1.92 µM (active)
[6]
  AC50: 97.6 µM (active)

## CCCCC(Br)C(=O)Nc1ccc(S(=O)(=O)Nc2cc(C)nc(C)n2)cc1 (stereo unspecified)
[1]
  IC50: 15.9 µM (active)

## CC(=O)Nc1ccc2c(COC(=O)CC3Sc4ccccc4NC3=O)cc(=O)oc2c1 (stereo unspecified)
[7]
  IC50: 30.7 µM (active)
[8]
  IC50: 19.3 µM (active)

## CC(C)OC(=O)c1ccc(NCc2cc(O)ccc2O)cc1
[9]
  AC50: 1.9 µM (active)
[10]
  AC50: 25 µM (active)
[11]
  AC50: 5.28 µM (active)
[12]
  AC50: 7.81 µM (active)

## Cc1cc(C)cc(OCC(=O)N2N=C(C(F)(F)F)CC2(O)C(C)(C)C)c1 (stereo unspecified)
[7]
  IC50: 5.91 µM (active)
[8]
  IC50: 4.6 µM (active)

## O=C(COC(=O)c1ccc([N+](=O)[O-])o1)NCCc1ccccc1
Caspase-6
  AC50: 42.2 µM (active)

## C[N+]1(CC(=O)OCCCc2ccccc2)CCCCC1
[7]
  IC50: 2.42 µM (active)
[8]
  IC50: 2.1 µM (active)

## CCCCCCN1C[C@@H](n2cc(-c3ccc(F)cc3)nn2)[C@H](O)C[C@@H]1c1ccc(Cl)cc1
[9]
  AC50: 12.5 µM (active)
[11]
  AC50: 21.5 µM (active)
Paired box protein Pax-8
  AC50: 9.71 µM (active)
[12]
  AC50: 41.6 µM (active)

## Cc1cc(C)c2c(O)nc(SCC(=O)Nc3ccc(Br)cc3)nc2n1
Steroidogenic factor 1
  IC50: 33.4 µM (inactive)
[13]
  IC50: 35.9 µM (inactive)
[14]
  IC50: 28.2 µM (inactive)

## CC(C)CCC[C@@H](C)[C@H]1CC[C@H]2[C@@H]3C(=O)C=C4C[C@@H](O)CC[C@]4(C)[C@H]3CC[C@]12C [7-OXOCHOLESTEROL]
[15]
  CC50: > 40 µM (active)

## C[C@H]1CN([C@@H](C)CO)C(=O)c2cc(NC(=O)Nc3cccc4ccccc34)ccc2O[C@H]1CN(C)C(=O)Nc1ccc(C(F)(F)F)cc1
[2]
  AC50: 1.86 µM (active)
[3]
  AC50: 1.5 µM (active)
[4]
  AC50: 2.37 µM (active)
[5]
  AC50: 3.76 µM (active)
[6]
  AC50: > 100 µM (inactive)

## O=C(Nc1nc(-c2ccccn2)cs1)c1ccc(-c2ccccc2F)o1
H9c2
  IC50: > 79 µM (inactive)
[10]
  AC50: 6.54 µM (active)

## N#C[C@@H]1[C@H](c2ccc(C3=CCCCC3)cc2)[C@H](CO)N1C(=O)NC1CCCC1
[2]
  AC50: 5.81 µM (active)
[3]
  AC50: 0.923 µM (active)
[4]
  AC50: 1.96 µM (active)
[5]
  AC50: 1.41 µM (active)
[6]
  AC50: 0.338 µM (active)

## Fc1ccc(C2=Nn3c(nnc3-c3[nH]nc4c3CCC4)SC2)cc1
[16]
  IC50: > 80 µM (inactive)

## Cc1cc(OCC(=O)N2CCC(O)CC2)c2c(C)cc(=O)oc2c1
Steroidogenic factor 1
  IC50: 11.2 µM (inactive)
[13]
  IC50: 35.9 µM (inactive)
[14]
  IC50: 19 µM (inactive)

## CCN(CC)C(=O)Cn1c(C)c(/C=C/c2cc[n+](C)cc2)c2ccccc21
[7]
  IC50: 4.08 µM (active)
[8]
  IC50: 2.08 µM (active)

## O=C(NCc1ccco1)c1nn(-c2ccccc2)c(=O)c2ccccc12
Steroidogenic factor 1
  IC50: 3.09 µM (active)
[13]
  IC50: 12 µM (inactive)
[14]
  IC50: 35.9 µM (inactive)

## COc1ccc(C(CCNCc2ccc(OC(C)C)cc2)C(C)C)cc1 (stereo unspecified)
[17]
  CC50: 13.7 µM (active)
[15]
  CC50: 23.1 µM (active)
[18]
  CC50: 13.6 µM (active)
cells
  IC50: 23 µM (active)

## O=C(Nc1ccccc1F)N1CCCCN2[C@@H](CO)[C@@H](c3ccc(C#Cc4cccnc4)cc3)[C@@H]2C1
[2]
  AC50: 1.95 µM (active)
[3]
  AC50: 0.95 µM (active)
[4]
  AC50: 1.33 µM (active)
[5]
  AC50: 1.35 µM (active)
[6]
  AC50: 42.6 µM (active)

## CC[n+]1c(C)n(Cc2ccccc2)c2ccc(Cl)cc21
[7]
  IC50: 2.27 µM (active)
[8]
  IC50: 1.39 µM (active)

## Cc1cc(C)c2nc(NC(=O)c3ccc([N+](=O)[O-])o3)sc2c1
Steroidogenic factor 1
  IC50: 0.148 µM (active)
[13]
  IC50: 35.9 µM (inactive)
[14]
  IC50: 35.9 µM (inactive)

## CC(NC(=O)CN1c2cccc3cccc(c23)S1(=O)=O)c1ccc(S(N)(=O)=O)cc1 (stereo unspecified)
Caspase-6
  AC50: 22.4 µM (active)

## CCC(c1nnnn1Cc1ccco1)N(Cc1ccccc1OC)Cc1cc2cc(C)ccc2nc1O (stereo unspecified)
Protein Tat
  IC50: > 100 µM (inconclusive)
[19]
  CC50: > 40 µM (active)

## CCOC(=O)c1nn(-c2ccc(Cl)cc2Cl)c(=N)c(C#N)c1C
Protein Tat
  IC50: > 100 µM (active)

## NS(=O)(=O)c1ccc(CCNCc2cc(Cl)ccc2OCc2ccccc2)cc1
[9]
  AC50: 4.46 µM (active)
[11]
  AC50: 7.31 µM (active)
[12]
  AC50: 46.9 µM (active)

## Cc1ccc(-c2cc(C(=O)NCCCN3CCOCC3)no2)cc1
[20]
  EC50: 19.1 µM (active)
[16]
  IC50: > 80 µM (inactive)

## CCN(C(=O)CN1C(=O)NC(c2ccccc2)(c2ccc(C)c(C)c2)C1=O)C1CCCCC1 (stereo unspecified)
[16]
  IC50: > 80 µM (inactive)
